Like-named read-outs stand apart in the source and are kept apart here.
Experiments:
CCRF-CEM = test: NCI60 one-dose screen (10 μM), Leukemia; format: cell-based; conditions: Homo sapiens, read-out: Growth percent rate
HL-60(TB) = test: NCI60 one-dose screen (10 μM), Leukemia; format: cell-based; conditions: Homo sapiens
K-562 = test: NCI60 one-dose screen (10 μM), Leukemia; format: cell-based; conditions: Homo sapiens
MOLT-4 = test: NCI60 one-dose screen (10 μM), Leukemia; format: cell-based, human; conditions: Homo sapiens
RPMI-8226 = test: NCI60 one-dose screen (10 μM), Leukemia; format: cell-based; conditions: Homo sapiens
A549/ATCC = test: NCI60 one-dose screen (10 μM), Non-small Cell Lung Cancer; format: cell-based; conditions: Homo sapiens
EKVX = test: as above; format: cell-based; conditions: Homo sapiens, read-out: Growth percent rate
HOP-62 = test: as above; format: cell-based; conditions: Homo sapiens
NCI-H23 = test: as above; format: cell-based; conditions: Homo sapiens
NCI-H322M = test: as above; format: cell-based; conditions: Homo sapiens, read-out: Growth percent rate
NCI-H460 = test: as above; format: cell-based; conditions: Homo sapiens
NCI-H522 = test: as above; format: cell-based; conditions: Homo sapiens
COLO 205 = test: NCI60 one-dose screen (10 μM), Colon Cancer; format: cell-based, human; conditions: Homo sapiens
HCC-2998 = test: NCI60 one-dose screen (10 μM), Colon Cancer; format: cell-based; conditions: Homo sapiens
HCT-116 = test: NCI60 one-dose screen (10 μM), Colon Cancer; format: cell-based; conditions: Homo sapiens
HCT-15 = test: NCI60 one-dose screen (10 μM), Colon Cancer; format: cell-based; conditions: Homo sapiens
HT29 = test: NCI60 one-dose screen (10 μM), Colon Cancer; format: cell-based; conditions: Homo sapiens
SW-620 = test: NCI60 one-dose screen (10 μM), Colon Cancer; format: cell-based; conditions: Homo sapiens
SF-268 = test: NCI60 one-dose screen (10 μM), CNS Cancer; format: cell-based; conditions: Homo sapiens
SF-539 = test: NCI60 one-dose screen (10 μM), CNS Cancer; format: cell-based, human; conditions: Homo sapiens
SNB-75 = test: NCI60 one-dose screen (10 μM), CNS Cancer; format: cell-based, human; conditions: Homo sapiens
U251 = test: NCI60 one-dose screen (10 μM), CNS Cancer; format: cell-based; conditions: Homo sapiens
M14 = test: NCI60 one-dose screen (10 μM), Melanoma; format: cell-based; conditions: Homo sapiens
MDA-MB-435 = test: NCI60 one-dose screen (10 μM), Melanoma; format: cell-based; conditions: Homo sapiens
SK-MEL-2 = test: NCI60 one-dose screen (10 μM), Melanoma; format: cell-based; conditions: Homo sapiens
SK-MEL-28 = test: NCI60 one-dose screen (10 μM), Melanoma; format: cell-based; conditions: Homo sapiens
SK-MEL-5 = test: NCI60 one-dose screen (10 μM), Melanoma; format: cell-based, human; conditions: Homo sapiens
UACC-257 = test: NCI60 one-dose screen (10 μM), Melanoma; format: cell-based; conditions: Homo sapiens
IGROV1 = test: NCI60 one-dose screen (10 μM), Ovarian Cancer; format: cell-based; conditions: Homo sapiens
OVCAR-3 = test: NCI60 one-dose screen (10 μM), Ovarian Cancer; format: cell-based; conditions: Homo sapiens
OVCAR-4 = test: NCI60 one-dose screen (10 μM), Ovarian Cancer; format: cell-based; conditions: Homo sapiens
OVCAR-8 = test: NCI60 one-dose screen (10 μM), Ovarian Cancer; format: cell-based; conditions: Homo sapiens
786–0 = test: NCI60 one-dose screen (10 μM), Renal Cancer; format: cell-based; conditions: Homo sapiens
A498 = test: NCI60 one-dose screen (10 μM), Renal Cancer; format: cell-based; conditions: Homo sapiens
ACHN = test: NCI60 one-dose screen (10 μM), Renal Cancer; format: cell-based; conditions: Homo sapiens, read-out: Growth percent rate
CAKI-1 = test: NCI60 one-dose screen (10 μM), Renal Cancer; format: cell-based; conditions: Homo sapiens
RXF 393 = test: NCI60 one-dose screen (10 μM), Renal Cancer; format: cell-based, human; conditions: Homo sapiens
SN12C = test: NCI60 one-dose screen (10 μM), Renal Cancer; format: cell-based; conditions: Homo sapiens, read-out: Growth percent rate
DU-145 = test: NCI60 one-dose screen (10 μM), Prostate Cancer; format: cell-based; conditions: Homo sapiens
MCF7 = test: NCI60 one-dose screen (10 μM), Breast Cancer; format: cell-based; conditions: Homo sapiens
HS 578T = test: NCI60 one-dose screen (10 μM), Breast Cancer; format: cell-based; conditions: Homo sapiens, read-out: Growth percent rate
[1] = test system: 60 human tumor cell lines (NCI60); test: NCI60 one-dose screen (10 μM), whole panel; format: cell-based; conditions: read-out: Growth percent rate, Mean
[2] = 10 μM, Non-small Cell Lung Cancer

CCC12C=CCN3CCC4(c5cc(NC(=O)CN6CCN(Cc7ccc(C(F)(F)F)cc7)CC6)c(OC)cc5N(C)C4C(O)(C(=O)OC)C1OC(C)=O)C32 (stereo not drawn) [Compound 18]
activity at 10 µM (CCRF-CEM): 39.4%
activity at 10 µM (HL-60(TB); HL-60, read-out: Growth percent rate): 42.6%
activity at 10 µM (K-562; K562, read-out: Growth percent rate): 43.8%
activity at 10 µM (MOLT-4; MOLT-4, read-out: Growth percent rate): 16.7%
activity at 10 µM (RPMI-8226; RPMI-8226, read-out: Growth percent rate): 17.4%
activity at 10 µM (A549/ATCC; A549, read-out: Growth percent rate): 54.1%
activity at 10 µM (EKVX): 61.6%
activity at 10 µM (HOP-62; HOP-62, read-out: Growth percent rate): 86.1%
activity at 10 µM (NCI-H23; NCI-H23, read-out: Growth percent rate): 73.1%
activity at 10 µM (NCI-H322M): 64.6%
activity at 10 µM (NCI-H460; NCI-H460, read-out: Growth percent rate): 62.1%
activity at 10 µM (NCI-H522; NCI-H522, read-out: Growth percent rate): 55.2%
activity at 10 µM (COLO 205; COLO 205, read-out: Growth percent rate): 56.5%
activity at 10 µM (HCC-2998; HCC 2998, read-out: Growth percent rate): 79.1%
activity at 10 µM (HCT-116; HCT-116, read-out: Growth percent rate): 46.4%
activity at 10 µM (HCT-15; HCT-15, read-out: Growth percent rate): 49.7%
activity at 10 µM (HT29; HT-29, read-out: Growth percent rate): 39.3%
activity at 10 µM (SW-620; SW-620, read-out: Growth percent rate): 87%
activity at 10 µM (SF-268; SF-268, read-out: Growth percent rate): 65.2%
activity at 10 µM (SF-539; SF-539, read-out: Growth percent rate): 73.1%
activity at 10 µM (SNB-75; SNB-75, read-out: Growth percent rate): 20.3%
activity at 10 µM (U251; U-251, read-out: Growth percent rate): 74.8%
activity at 10 µM (M14; M14, read-out: Growth percent rate): 67.2%
activity at 10 µM (MDA-MB-435; MDA-MB-435, read-out: Growth percent rate): 63.9%
activity at 10 µM (SK-MEL-2; SK-MEL-2, read-out: Growth percent rate): 72.9%
activity at 10 µM (SK-MEL-28; SK-MEL-28, read-out: Growth percent rate): 90.8%
activity at 10 µM (SK-MEL-5; SK-MEL-5, read-out: Growth percent rate): 21.2%
activity at 10 µM (UACC-257; UACC-257, read-out: Growth percent rate): 80.6%
activity at 10 µM (IGROV1; IGROV-1, read-out: Growth percent rate): 71.3%
activity at 10 µM (OVCAR-3; OVCAR-3, read-out: Growth percent rate): 84.5%
activity at 10 µM (OVCAR-4; OVCAR-4, read-out: Growth percent rate): 63.1%
activity at 10 µM (OVCAR-8; OVCAR-8, read-out: Growth percent rate): 72%
activity at 10 µM (786–0; 786-0, read-out: Growth percent rate): 75.5%
activity at 10 µM (A498; A498, read-out: Growth percent rate): 78.7%
activity at 10 µM (ACHN): 67.3%
activity at 10 µM (CAKI-1; CAKI-1, read-out: Growth percent rate): 33%
activity at 10 µM (RXF 393; RXF 393, read-out: Growth percent rate): 41%
activity at 10 µM (SN12C): 59.3%
activity at 10 µM (DU-145; DU-145, read-out: Growth percent rate): 71.6%
activity at 10 µM (MCF7; MCF7, read-out: Growth percent rate): 32.6%
activity at 10 µM (HS 578T; Hs-578T): 62.5%
activity at 10 µM ([1]; Homo sapiens): 60.6%

CCC12C=CCN3CCC4(c5cc(NC(=O)CN6CCN(C(=O)c7ccco7)CC6)c(OC)cc5N(C)C4C(O)(C(=O)OC)C1OC(C)=O)C32 (stereo not drawn) [Compound 21]
activity at 10 µM (CCRF-CEM; 10 μM, Leukemia): 103%
activity at 10 µM (HL-60(TB); 10 μM, HL-60(TB), Leukemia, read-out: Growth percent rate): 114%
activity at 10 µM (K-562; K562, 10 μM, K-562, Leukemia, read-out: Growth percent rate): 108%
activity at 10 µM (MOLT-4; 10 μM, MOLT-4, Leukemia, read-out: Growth percent rate): 101%
activity at 10 µM (RPMI-8226; 10 μM, RPMI-8226, Leukemia, read-out: Growth percent rate): 103%
activity at 10 µM (A549/ATCC; 10 μM, A549/ATCC, Non-small Cell Lung Cancer, read-out: Growth percent rate): 101%
activity at 10 µM (EKVX; [2]): 99.2%
activity at 10 µM (HOP-62; 10 μM, HOP-62, Non-small Cell Lung Cancer, read-out: Growth percent rate): 100%
activity at 10 µM (NCI-H23; 10 μM, NCI-H23, Non-small Cell Lung Cancer, read-out: Growth percent rate): 106%
activity at 10 µM (NCI-H322M; [2]): 110%
activity at 10 µM (NCI-H460; 10 μM, NCI-H460, Non-small Cell Lung Cancer, read-out: Growth percent rate): 108%
activity at 10 µM (NCI-H522; 10 μM, NCI-H522, Non-small Cell Lung Cancer, read-out: Growth percent rate): 98.2%
activity at 10 µM (COLO 205; 10 μM, COLO 205, Colon Cancer, read-out: Growth percent rate): 120%
activity at 10 µM (HCC-2998; 10 μM, HCC-2998, Colon Cancer, read-out: Growth percent rate): 126%
activity at 10 µM (HCT-116; 10 μM, HCT-116, Colon Cancer, read-out: Growth percent rate): 108%
activity at 10 µM (HCT-15; 10 μM, HCT-15, Colon Cancer, read-out: Growth percent rate): 107%
activity at 10 µM (HT29; HT-29, 10 μM, HT29, Colon Cancer, read-out: Growth percent rate): 109%
activity at 10 µM (SW-620; 10 μM, SW-620, Colon Cancer, read-out: Growth percent rate): 113%
activity at 10 µM (SF-268; 10 μM, SF-268, CNS Cancer, read-out: Growth percent rate): 106%
activity at 10 µM (SF-539; 10 μM, SF-539, CNS Cancer, read-out: Growth percent rate): 114%
activity at 10 µM (SNB-75; 10 μM, SNB-75, CNS Cancer, read-out: Growth percent rate): 91%
activity at 10 µM (U251; U-251, 10 μM, U251, CNS Cancer, read-out: Growth percent rate): 118%
activity at 10 µM (M14; 10 μM, M14, Melanoma, read-out: Growth percent rate): 110%
activity at 10 µM (MDA-MB-435; 10 μM, MDA-MB-435, Melanoma, read-out: Growth percent rate): 104%
activity at 10 µM (SK-MEL-2; 10 μM, SK-MEL-2, Melanoma, read-out: Growth percent rate): 111%
activity at 10 µM (SK-MEL-28; 10 μM, SK-MEL-28, Melanoma, read-out: Growth percent rate): 126%
activity at 10 µM (SK-MEL-5; 10 μM, SK-MEL-5, Melanoma, read-out: Growth percent rate): 105%
activity at 10 µM (UACC-257; 10 μM, UACC-257, Melanoma, read-out: Growth percent rate): 106%
activity at 10 µM (IGROV1; IGROV-1, 10 μM, IGROV1, Ovarian Cancer, read-out: Growth percent rate): 127%
activity at 10 µM (OVCAR-3; 10 μM, OVCAR-3, Ovarian Cancer, read-out: Growth percent rate): 118%
activity at 10 µM (OVCAR-4; 10 μM, OVCAR-4, Ovarian Cancer, read-out: Growth percent rate): 108%
activity at 10 µM (OVCAR-8; 10 μM, OVCAR-8, Ovarian Cancer, read-out: Growth percent rate): 101%
activity at 10 µM (786–0; 10 μM, 786-0, Renal Cancer, read-out: Growth percent rate): 104%
activity at 10 µM (A498; 10 μM, A498, Renal Cancer, read-out: Growth percent rate): 104%
activity at 10 µM (ACHN; 10 μM, Renal Cancer): 109%
activity at 10 µM (CAKI-1; 10 μM, CAKI-1, Renal Cancer, read-out: Growth percent rate): 97.5%
activity at 10 µM (RXF 393; 10 μM, RXF 393, Renal Cancer, read-out: Growth percent rate): 133%
activity at 10 µM (SN12C; 10 μM, Renal Cancer): 107%
activity at 10 µM (DU-145; 10 μM, DU-145, Prostate Cancer, read-out: Growth percent rate): 110%
activity at 10 µM (MCF7; 10 μM, MCF7, Breast Cancer, read-out: Growth percent rate): 98.3%
activity at 10 µM (HS 578T; 10 μM, HS 578T, Breast Cancer): 121%
activity at 10 µM ([1]; 10 μM, mean over 60 human cancer cell lines): 108%

Source: publication PMC11277489, “Novel Piperazine Derivatives of Vindoline as Anticancer Agents” (International Journal of Molecular Sciences, 2024)
